Reference: patent US20100267561A1, “HERBICIDAL PYRIDAZINONE DERIVATIVES” (priority 2007, published 2010)

Legend:
Type in all cases: in vivo
[1] = test system: winter wheat (Triticum aestivum); test: Test C pre-/postemergence plant response; details: Preemergence
Outline: (§1)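 Plant response was judged by eye against untreated controls following 15 to 25 days in a controlled growth environment, using 0 for no effect and 100 for complete control. Treatments were made both preemergence and postemergence, the latter on plants of 1- to 4-leaf stage.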

[2] = test system: spring wheat (Triticum aestivum); test: Test C pre-/postemergence plant response; details: Preemergence
Outline: as §1

[3] = test system: winter barley (Hordeum vulgare); test: Test C pre-/postemergence plant response; details: Preemergence
Outline: as §1

[4] = test system: green foxtail (Setaria viridis); test: Test C pre-/postemergence plant response; details: Preemergence
Outline: as §1

[5] = test system: annual bluegrass (Poa annua); test: Test C pre-/postemergence plant response; details: Preemergence
Outline: as §1

[6] = test system: pigweed (Amaranthus retroflexus); test: Test C pre-/postemergence plant response; details: Preemergence
Outline: as §1

[7] = test system: wild mustard (Sinapis arvensis); test: Test C pre-/postemergence plant response; details: Preemergence
Outline: as §1

[8] = test system: blackgrass (Alopecurus myosuroides); test: Test C pre-/postemergence plant response; details: Preemergence
Outline: as §1

[9] = test system: spring barley (Hordeum vulgare); test: Test C pre-/postemergence plant response; details: Preemergence
Outline: as §1

[10] = test system: canarygrass (Phalaris minor); test: Test C pre-/postemergence plant response; details: Preemergence
Outline: as §1

[11] = test system: windgrass (Apera spica-venti); test: Test C pre-/postemergence plant response; details: Preemergence
Outline: as §1

[12] = test system: Italian ryegrass (Lolium multiflorum); test: Test C pre-/postemergence plant response; details: Preemergence
Outline: as §1

[13] = test system: giant foxtail (Setaria faberi); test: Test A pre-/postemergence plant response
Outline: (§2)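 Scores reflect visual plant injury relative to untreated controls on a 0–100 scale, recorded approximately 10 days after simultaneous preemergence soil spraying and postemergence spraying of one- to two-leaf seedlings grown in loam–sand.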

[14] = test system: velvetleaf (Abutilon theophrasti); test: Test A pre-/postemergence plant response
Outline: as §2

[15] = test system: wheat (Triticum aestivum); test: Test A pre-/postemergence plant response
Outline: as §2

[16] = 8 g ai/ha, scale 0 to 100 (0 no effect, 100 complete control)
[17] = 16 g ai/ha, scale 0 to 100 (0 no effect, 100 complete control)
[18] = 31 g ai/ha, scale 0 to 100 (0 no effect, 100 complete control)
[19] = 62 g ai/ha, scale 0 to 100, 0 no effect, 100 complete control
[20] = Postemergence, 31 g ai/ha, 0 to 100 scale, 0 no effect, 100 complete control
[21] = Postemergence, 125 g ai/ha, 0 to 100 scale, 0 no effect, 100 complete control
[22] = Preemergence, 31 g ai/ha, 0 to 100 scale, 0 is no effect, 100 is complete control
[23] = Preemergence, 125 g ai/ha, 0 to 100 scale (0 no effect, 100 complete control)

Cc1cc(-c2ccc(Cl)cc2)nn1-c1c(OS(=O)(=O)c2ccc(Cl)s2)cnn(C)c1=O [Compound 55]
Plant response rating, Wheat, Winter [1, 16]: 0 | Plant response rating, Wheat, Winter [1, 17]: 0 | Plant response rating, Wheat, Winter [1, 18]: 0 | Plant response rating, Wheat, Winter [1, 19]: 60 | Plant response rating, Wheat, Spring [2, 16]: 0 | Plant response rating, Wheat, Spring [2, 17]: 0 | Plant response rating, Wheat, Spring [2, 18]: 50 | Plant response rating, Wheat, Spring [2, 19]: 60 | Plant response rating, Barley, Winter [3, 16]: 0 | Plant response rating, Barley, Winter [3, 17]: 0 | Plant response rating, Barley, Winter [3, 18]: 0 | Plant response rating, Barley, Winter [3, 19]: 60 | Plant response rating, Foxtail, Green [4, 16]: 20 | Plant response rating, Foxtail, Green [4, 17]: 40 | Plant response rating, Foxtail, Green [4, 18]: 100 | Plant response rating, Foxtail, Green [4, 19]: 100 | Plant response rating, Bluegrass [5, 16]: 0 | Plant response rating, Bluegrass [5, 17]: 0 | Plant response rating, Bluegrass [5, 18]: 0 | Plant response rating, Bluegrass [5, 19]: 15 | Plant response rating, Pigweed [6, 16]: 0 | Plant response rating, Pigweed [6, 17]: 0 | Plant response rating, Pigweed [6, 18]: 0 | Plant response rating, Mustard, Wild [7, 16]: 0 | Plant response rating, Mustard, Wild [7, 17]: 0 | Plant response rating, Mustard, Wild [7, 18]: 0 | Plant response rating, Mustard, Wild [7, 19]: 0 | Plant response rating, Blackgrass [8, 17]: 40 | Plant response rating, Blackgrass [8, 18]: 80 | Plant response rating, Blackgrass [8, 19]: 95 | Plant response rating, Barley, Spring [9, 16]: 0 | Plant response rating, Barley, Spring [9, 17]: 0 | Plant response rating, Barley, Spring [9, 18]: 0 | Plant response rating, Barley, Spring [9, 19]: 70 | Plant response rating, Canarygrass [10, 16]: 0 | Plant response rating, Canarygrass [10, 17]: 0 | Plant response rating, Canarygrass [10, 18]: 20 | Plant response rating, Canarygrass [10, 19]: 90 | Plant response rating, Windgrass [11, 16]: 0 | Plant response rating, Windgrass [11, 17]: 0 | Plant response rating, Windgrass [11, 18]: 0 | Plant response rating, Windgrass [11, 19]: 60 | Plant response rating, Ryegrass, Italian [12, 16]: 0 | Plant response rating, Ryegrass, Italian [12, 17]: 0 | Plant response rating, Ryegrass, Italian [12, 19]: 90 | Plant response rating, Foxtail, Giant [13, 20]: 20 | Plant response rating, Foxtail, Giant [13, 21]: 70 | Plant response rating, Foxtail, Giant [13, 22]: 80 | Plant response rating, Foxtail, Giant [13, 23]: 90 | Plant response rating, Velvetleaf [14, 20]: 0 | Plant response rating, Velvetleaf [14, 21]: 0 | Plant response rating, Velvetleaf [14, 22]: 0 | Plant response rating, Velvetleaf [14, 23]: 0 | Plant response rating, Wheat [15, 20]: 0 | Plant response rating, Wheat [15, 21]: 30 | Plant response rating, Wheat [15, 22]: 0 | Plant response rating, Wheat [15, 23]: 50

Cc1cc(-c2ccc(Cl)cc2)nn1-c1c(OS(=O)(=O)c2cccc3ccccc23)cnn(C)c1=O [Compound 47]
Plant response rating, Wheat, Winter [1, 16]: 0 | Plant response rating, Wheat, Winter [1, 17]: 20 | Plant response rating, Wheat, Winter [1, 18]: 35 | Plant response rating, Wheat, Winter [1, 19]: 65 | Plant response rating, Wheat, Spring [2, 16]: 0 | Plant response rating, Wheat, Spring [2, 17]: 15 | Plant response rating, Wheat, Spring [2, 18]: 25 | Plant response rating, Wheat, Spring [2, 19]: 65 | Plant response rating, Barley, Winter [3, 16]: 0 | Plant response rating, Barley, Winter [3, 17]: 20 | Plant response rating, Barley, Winter [3, 18]: 40 | Plant response rating, Barley, Winter [3, 19]: 40 | Plant response rating, Foxtail, Green [4, 16]: 0 | Plant response rating, Foxtail, Green [4, 17]: 15 | Plant response rating, Foxtail, Green [4, 18]: 80 | Plant response rating, Foxtail, Green [4, 19]: 100 | Plant response rating, Bluegrass [5, 16]: 0 | Plant response rating, Bluegrass [5, 17]: 20 | Plant response rating, Bluegrass [5, 18]: 50 | Plant response rating, Bluegrass [5, 19]: 50 | Plant response rating, Pigweed [6, 16]: 0 | Plant response rating, Pigweed [6, 17]: 0 | Plant response rating, Pigweed [6, 18]: 0 | Plant response rating, Pigweed [6, 19]: 0 | Plant response rating, Mustard, Wild [7, 16]: 0 | Plant response rating, Mustard, Wild [7, 17]: 0 | Plant response rating, Mustard, Wild [7, 18]: 0 | Plant response rating, Mustard, Wild [7, 19]: 0 | Plant response rating, Blackgrass [8, 16]: 0 | Plant response rating, Blackgrass [8, 17]: 0 | Plant response rating, Blackgrass [8, 18]: 90 | Plant response rating, Blackgrass [8, 19]: 100 | Plant response rating, Barley, Spring [9, 16]: 10 | Plant response rating, Barley, Spring [9, 17]: 20 | Plant response rating, Barley, Spring [9, 18]: 35 | Plant response rating, Barley, Spring [9, 19]: 75 | Plant response rating, Canarygrass [10, 16]: 0 | Plant response rating, Canarygrass [10, 17]: 0 | Plant response rating, Canarygrass [10, 18]: 50 | Plant response rating, Canarygrass [10, 19]: 90 | Plant response rating, Windgrass [11, 16]: 0 | Plant response rating, Windgrass [11, 17]: 0 | Plant response rating, Windgrass [11, 18]: 30 | Plant response rating, Windgrass [11, 19]: 65 | Plant response rating, Ryegrass, Italian [12, 16]: 0 | Plant response rating, Ryegrass, Italian [12, 17]: 20 | Plant response rating, Ryegrass, Italian [12, 18]: 80 | Plant response rating, Ryegrass, Italian [12, 19]: 100 | Plant response rating, Foxtail, Giant [13, 20]: 10 | Plant response rating, Foxtail, Giant [13, 21]: 60 | Plant response rating, Foxtail, Giant [13, 22]: 70 | Plant response rating, Foxtail, Giant [13, 23]: 90 | Plant response rating, Velvetleaf [14, 20]: 0 | Plant response rating, Velvetleaf [14, 21]: 0 | Plant response rating, Velvetleaf [14, 22]: 0 | Plant response rating, Velvetleaf [14, 23]: 0 | Plant response rating, Wheat [15, 20]: 0 | Plant response rating, Wheat [15, 21]: 10 | Plant response rating, Wheat [15, 22]: 0 | Plant response rating, Wheat [15, 23]: 40
